Laboratory results taken from EP0002051A1, “Use of butoxybenzylhyoscyamine bromide in pharmaceutical compositions against deafness and tinnitus” (Eisai Co., Ltd., priority 1977, dated 1979).

Key:
hearing power [1] = test: clinical test: audiometry just after intravenous injection (30 minutes); type: in vivo; details: 5o patients
Procedure: (§1) Among patients who came into the hospital during the period of from September 1976 to September 1977 while complaining of deafness or tinnitus, those meeting the following conditions were chosen.
(§2) Butoxybenzylhyoscyamine bromide was administered to 74 patients meeting the above conditions.
(§3) In principle, a mixture of 4 mg of butoxybenzylhyoscyamine bromide with 2o % glucose was intravenously injected at first, and then, two capsules, each containing 5 mg of butoxybenzylhyoscyamine bromide, was administered 3-times per day (namely, 6 capsules being administered as a whole per day). The administration of capsules was conducted for one week.
(§4) • (a) The standard autiometry (125 - 8ooo Hz, air and bone condition) was carried out before the injection. • (b) The same test was conducted 3o minutes after the injection. In patients complaining of tinnitus, the change of the degree of tinnitus was examined. • (c) The audiometry was carried out on the 7th day from the start of the oral administration. If the patients felt changes of hearing power or tinnitus during this period, the audiometry was appropriately conducted. • (d) During the oral administraion period of 7 days, desease conditions such as (1) hearing power (2) tinnitus, (3) other ear symptoms and (4) side effects were recorded in examination cards.
(§5) • 1. Change of hearing power just after injection (3o minutes: • With respect to 5o patients, the audiometry was carried out just after the intravenous injection of butoxybenzylhyoscyamine bromide (3o minutes after the injection) to obtain results shown in table 2. Sounds of 25o Hz, 1000 Hz and 8000 Hz were chosen as typical instances of sounds of the low-tone, medium-tone and high-tone regions, respectively, and changes of the hearing power to these sounds were examined. The change within a range of + 5 dB was judged as "no change" and the change exceeding 5 dB was judged as "improvement" or "worsening". [formula] As will be apparent from the results shown in table 2, the highest improvement was 2o dB (1ooo Hz) but in many cases, the improvement was up to 15 dB. The improvement was higher in the order of the low-tone region (18%), the high-tone region (12 %) and the mediom-tone region (8%) and the average improvement of the hearing power after the intravenous injection was about 13 %. • 2. Improvement of Tinnitus: With respect to 41 patients complaining of tinnitus, the change of degree of tinnitus was examined after one week's oral administration to obtain results shown belof in table 3. [formula] As will be apparent from the results shown in table 3, the agent was effective in 15 patients (36%), though the agent of the present invention was ineffective in 24 patients (59%) or the agent worsened the state in 2 patients (5%). • 3. Change of hearing power after administration: Changes of the hearing power were examined during a period of 1 year and three months at longest after one week's administration. With respect to cases where high improving effects were attained, the clinical history will be described.

male and female rats = test: chronic toxicity, continuous administration for 25 weeks; type: in vivo
Procedure: Toxicity of butoxybenzylhyoscyamine bromide in detail: • (A) The acute toxicity, LDSo(mg/kg), is as shown in table 1 [formula] • (B) The compound was administered in an amount of 3.2, 8.0 or 2o mg/kg per day to male and female rats conti- nously during 25 weeks to determine the chronic toxicity.

hearing power [2] = test: clinical test: change of hearing power after administration (case histories, audiograms); type: in vivo, patients
Procedure: as §1, §3, §4, §5

tinnitus = test: clinical test: change of degree of tinnitus after one week's oral administration; type: in vivo; details: 41 patients complaining of tinnitus
Procedure: as §1, §2, §3, §4, §5

[3] = rats, 3.2, 8.0 or 2o mg/kg per day

CCCCOc1ccc(C[N+]2(C)C3CCC2CC(OC(=O)C(CO)c2ccccc2)C3)cc1 (stereo not shown) [butoxybenzylhyoscyamine bromide, N-(p-n-butoxybenzyl)-hyoscyaminium bromide]
improvement of hearing power in many cases (hearing power [1]; 3o minutes after intravenous injection of 4 mg): up to 15 dB
highest improvement of hearing power (hearing power [1]; 3o minutes after intravenous injection of 4 mg, 1ooo Hz): 2o
improvement, low-tone region (hearing power [1]; 3o minutes after intravenous injection, 25o Hz, change exceeding 5 dB judged as improvement): 18%
improvement, medium-tone region (hearing power [1]; 3o minutes after intravenous injection, 1000 Hz, change exceeding 5 dB judged as improvement): 8%
improvement, high-tone region (hearing power [1]; 3o minutes after intravenous injection, 8000 Hz, change exceeding 5 dB judged as improvement): 12%
average improvement of the hearing power after the intravenous injection (hearing power [1]; average of low-, medium- and high-tone regions): about 13%
change in organs (chronic toxicity) (male and female rats; [3]): no substantial change was observed in any organ
tests of blood and urine (chronic toxicity) (male and female rats; [3]): particular changes or disorders were not observed at all
changes observed (chronic toxicity) (male and female rats; rats, daily administered amount 2o mg/kg): inactive motion, mydriasis, control of increase of the body weight, storage of a small quantity of abdominal dropsy and formation of false membranes on the liver and spleen
tinnitus, Case 2 (hearing power [2]; person with the improvement of the hearing power): Tinnitus disappeared
hearing loss, Case 6 (hearing power [2]; person, 3o minutes after intravenous injection): the hearing loss was extremely reduced
hearing power after second 1 week oral administration, Case 4 (hearing power [2]; person, at termination of the second oral administration): further improved in the low-tone region
hearing power restored on the average, Case 4 (hearing power [2]; person, fixed perceptive deafness, one intravenous injection then 1 week oral, after 3 weeks): about 1o
hearing power restored at maximum, Case 4 (hearing power [2]; person, fixed perceptive deafness, one intravenous injection then 1 week oral, after 3 weeks, 2 KHz): 2o
change of hearing power, Case 3 (hearing power [2]; person, fixed sudden deafness of right ear, repeated intravenous injection): remarkably improved in the low-tone region
hearing loss after about 1 month, Case 2 (hearing power [2]; person, left ear, hearing loss about 5o dB before, one week oral administration with S.G.B.): 1o
hearing power after one week's administration, Case 2 (hearing power [2]; person, left ear, hearing loss about 5o dB before, oral administration while conducting S.G.B.): returned to the level equal to the level at the first examination
change of hearing power, Case 5 (hearing power [2]; person, perceptive deafness of left ear, oral, 3 weeks, 6 capsules per day): gradually recovered but was not returned to the normal level
change of hearing power, Case 1 (hearing power [2]; person, perceptive deafness, six capsules of 5 mg per day): the improvement was observed in the low-tone region after the administration
tinnitus: effective, number of patients (tinnitus): 15 patients
tinnitus: effective, share of patients (tinnitus): 36%
tinnitus: ineffective, number of patients (tinnitus): 24 patients
tinnitus: ineffective, share of patients (tinnitus): 59%
tinnitus: state worsened, number of patients (tinnitus): 2 patients
tinnitus: state worsened, share of patients (tinnitus): 5%
